This is an account of results in US20050032246A1, “Method of immobilizing membrane-associated molecules” (priority 2002, published 2005).

Assay [1] has as its target IMR-32 nAChR. Type of assay: binding, human. The note with it: IMR-32 nAChR entrapped in DGS; constant 3H-epibetadine; FIG. 10. The protocol: Sodium silicate or DGS derived sol precursors were prepared by methods described previously.^64 The sol solution was mixed 1:1 (v/v) with the buffered liposome or reconstituted nAChR solution, in the bottoms of 96 well microtiter plates to a final volume of 100 μL. For entrapment of IMR-32 cells for ion flux assays, the nAChR containing stock described above was uses for entrapment without further dilution. For radioassays using IMR-32 nAChR, the stock sample as provided directly from Perkin Elmer was diluted four fold in 25 mM HEPES, 100 mM KCl, 5 mM EGTA, pH 7.4 and mixed 1:1 (v/v) in DGS derived sol. The samples were aged for 1 hr at 4° C. For Torpedo Californica nAChR, the stock sample was diluted four fold in 150 mM HEPES, 100 mM KCl, 5 mM EDTA, pH 7.4, and mixed 1:1 (v/v) with sodium silicate derived sol.
Samples of either entrapped Torpedo californica nAChR, IMR-32 nAChR or Asolectin liposomes were formed in the bottoms of 96-well microtiter plates. […] The radioactive decay from ^3H-epibatidine was then counted for 5 min to determine the ratio of free ligand existing in solution. […] Using the information from these samples the amount of receptor bound ligand could be determined. […] Free ligand was determined as described above.

The test system of the next assay is gramicidin A. Description: Safranine O ion-channel activity assay of reconstituted gramicidin A entrapped in DGS derived silicate. Type of assay: biochemical. The note with it: various levels of CaCl2 with 3.0 M KI; several hundred millimolar Ca2+ required; FIG. 6. The protocol:
The Gramicidin A stock was prepared in a solution of chloroform, trifluoroethanol and dimethylsulfoxide (19:5:1 volume ratio) to a final concentration of 4.79×10^−4M. Gramicidin A stock solutions were mixed with the lipid stock solutions (20 mg.mL^−1 DOPC in chloroform) in disposable glass vials to provide final ratios of gA:lipid of either 0.39 mol % or 0.94 mol %. The organic solvent was removed by evaporation under a dry nitrogen gas stream to remove the bulk of the organic solvent, followed by evaporation under vacuum for two hours. […]
For ion-channel studies, reconstitution of gramicidin A samples was done using an unbuffered aqueous solution containing 50 μM safranine O at pH 7.0. […] Liposome solutions that were used for tryptophan fluorescence studies consisted of 0.94 mol % of gramicidin A in DOPC that was hydrated to final concentrations of 1.0 μM of gA in 100 mM phosphate buffer at pH 7.0. […]
The fluorescence intensity response of safranine O was monitored using the MICROMAX microwell plate reader. Fluorescence emission was monitored as a function of time at 565 nm with an excitation wavelength of 528 nm upon addition of 125 μL of various concentrations of potassium iodide to the top of the monolithic samples in the microwell plate to create an ionic gradient across the membrane. […]

The subject of assay [2] is IMR-32 nAChR. Type of assay: biochemical, human.
Method: Lipid films consisting of EggPC, EggPE, Sphingomylin and cholesterol in mol ratios of 55:27:9:9 percent, respectively, were prepared as described earlier, and rehydrated to a final lipid concentration of 3.0 mg/mL and Fluo-3 concentration of 65 μM. The liposome stock was then mixed with a small amount of DMM bringing the solution to a final concentration of 0.2 mM. Immediately following this, IMR-32 nAChR stock was added to the detergent lipid mixture and allowed to incubate at 4° C. for 90 min. Following this 15 mg of SM2-Biobeads were added to the mixture and incubated for 1 hr. This was repeated 3 times with the final addition allowed to incubate for a period of 12 hrs. […]
In these assays, IMR-32 nAChR containing liposomes with an intraliposomal solution of Fluo-3 were entrapped as described above in 1:1 (v/v) in DGS derived silica. […] Antagonism of the nAChR ion channel was measured by addition of 25 μL of the nAChR antagonist d-tubocurarine to the top of the nAChR-containing monolith in the 96-well plate. Ligand-gated ion-flux was monitored through time dependent changes in fluorescence intensity upon the addition of 50 μL of 3 M CaCl2 using a TECAN-Safire microwell platereading fluorescence system. Fluo-3 emission was monitored and 526 nm with an excitation wavelength of 488 nm, emission and excitation bandpasses of 5 and 7.5 nm, and a detector gain of 130 V, over a period of 45 min. […]
Assay [3] in a line: Fluo-3 Ca(II) influx into DOPC liposomes in buffered solution after addition of ionophore. The assay is classed as biochemical. The conditions noted are these: Ca(II) outside, fluo-3 inside, FIG. 14. The protocol:
DOPC stock solutions were purchased in chloroform at a concentration of 20 mg.mL^−1. DOPC stock solution was dispensed in disposable glass vials and the organic solvent was removed by evaporation under a dry nitrogen gas stream to remove the bulk of the organic solvent, followed by evaporation under vacuum for two hours. The resulting dried lipid films were then rehydrated in a buffer consisting of 25 mM EGTA, 25 mM EDTA, 10% Sucrose (w/w), 10 mM KCl, 0.529 mM Fluo-3, pH 7.6 to a final lipid concentration of 2 mg/mL. The hydrated liposomes were then extruded through 600 nm pores, with an Avanti—MINIEXTRUDER at room temperature to create a mono-disperse suspension of unilamellar liposomes 600 nm in diameter. The external Fluo-3 was removed by filtration through a column packed with Sephadex G25 to yield liposomes with dye only on the interior of the liposome.
In this case, Ca(II) is initially present only outside the liposome, while fluo-3 is present only inside the liposome. The addition of ionomycin results in the incorporation of the ionophore into the membrane, and produces a channel through which Ca(II) can move into the interior of the liposome. […]

For the compound `CN1CCCC1c1cccnc1` (single isomer, unassigned; (-)) [nicotine, (−)-nicotine], the “IC50 and KI values compared with solution based experiments” value against IMR-32 nAChR [1] is recorded as “in good agreement with those obtained from solution based experiments”.
With `[Ca+2].[Cl-].[Cl-]` [CaCl2], in the assay on gramicidin A, the “potential induced fluorescence response to potassium ion flux (inhibition of ion-channel activity)” value is “significant and concentration-dependent decrease”.
Consider `O=c1cccc2n1C[C@@H]1CNC[C@H]2C1` [cytisine], for which, in the assay on IMR-32 nAChR [2], the “fluo-3 emission response to Ca(II) (ion flux) upon addition of agonist” value is given as “acts as an agonist”.
Regarding `COc1cc2c3cc1Oc1cc(ccc1O)C[C@@H]1c4c(cc(OC)c(O)c4Oc4ccc(cc4)C[C@@H]3N(C)CC2)CC[N+]1(C)C` [d-tubocurarine], the “fluo-3 emission response to Ca(II) (ion flux) upon addition of antagonist” value in the assay on IMR-32 nAChR [2] (liposomes previously incubated with excess nicotine, FIG. 12) is reported as “the response is reduced”. The “IC50 and KI values compared with solution based experiments” value at IMR-32 nAChR [1] was “in good agreement with those obtained from solution based experiments”.
As for `C[C@H](CCC(=O)O)C[C@H](C)C[C@H](C)C(=O)/C=C(\O)[C@H](C)C[C@H](C)C/C=C/[C@@H](C)[C@@H](O)[C@@H](C)[C@@H](O)C[C@@H]1CC[C@@](C)([C@H]2CC[C@@](C)([C@@H](C)O)O2)O1` [ionomycin], the “increase of fluo-3 response on Ca(II) influx” value in assay [3] worked out at 3 fold.
